Source: ChEMBL document CHEMBL1201862, “PubChem BioAssay data set” (2004)
Blank lines part the entries; values can stand above or below the compound they belong to. Calls of active or inactive are those of the source.

How the values were obtained:
[1] = target: T1, Oxysterols receptor LXR-beta (Homo sapiens, UniProt P55055); assay: LXR agonists, Gal4 luciferase reporter, dose response, counter-screen for ssDAF-12 agonist project, cell-based, luminescence, HEK293, S. stercoralis campaign (AID 720737); type: functional; conditions: read-out: IC50 (the source's name)
T1 sequence (P55055 whole entry): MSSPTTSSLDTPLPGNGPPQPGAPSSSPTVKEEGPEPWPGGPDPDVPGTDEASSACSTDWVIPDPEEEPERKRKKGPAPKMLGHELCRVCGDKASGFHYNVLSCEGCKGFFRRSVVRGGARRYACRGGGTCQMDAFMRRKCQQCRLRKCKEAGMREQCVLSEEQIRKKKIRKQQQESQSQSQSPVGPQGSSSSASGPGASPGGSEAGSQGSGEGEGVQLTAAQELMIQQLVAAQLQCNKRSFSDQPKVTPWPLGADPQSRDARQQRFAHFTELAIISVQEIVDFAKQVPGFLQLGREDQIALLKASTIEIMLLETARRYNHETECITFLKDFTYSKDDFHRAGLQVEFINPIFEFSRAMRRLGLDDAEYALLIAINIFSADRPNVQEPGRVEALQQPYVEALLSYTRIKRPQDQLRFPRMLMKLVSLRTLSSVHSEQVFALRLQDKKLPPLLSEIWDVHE

[2] = Luminescence-based cell-based high throughput dose response assay to identify activators of the DAF-12 from the parasite S. stercoralis (ssDAF-12).; type: functional
[3] = target: T2, 1-phosphatidylinositol 4,5-bisphosphate phosphodiesterase gamma-1 (Homo sapiens, UniProt P19174); assay: Counterscreen for inhibitors of phospholipase C isozymes (PLC-B3): Fluorescence-based biochemical high throughput dose response assay to identify inhibitors of phospholipase C isozymes (PLC-gamma1).
T2 sequence (P19174 whole entry): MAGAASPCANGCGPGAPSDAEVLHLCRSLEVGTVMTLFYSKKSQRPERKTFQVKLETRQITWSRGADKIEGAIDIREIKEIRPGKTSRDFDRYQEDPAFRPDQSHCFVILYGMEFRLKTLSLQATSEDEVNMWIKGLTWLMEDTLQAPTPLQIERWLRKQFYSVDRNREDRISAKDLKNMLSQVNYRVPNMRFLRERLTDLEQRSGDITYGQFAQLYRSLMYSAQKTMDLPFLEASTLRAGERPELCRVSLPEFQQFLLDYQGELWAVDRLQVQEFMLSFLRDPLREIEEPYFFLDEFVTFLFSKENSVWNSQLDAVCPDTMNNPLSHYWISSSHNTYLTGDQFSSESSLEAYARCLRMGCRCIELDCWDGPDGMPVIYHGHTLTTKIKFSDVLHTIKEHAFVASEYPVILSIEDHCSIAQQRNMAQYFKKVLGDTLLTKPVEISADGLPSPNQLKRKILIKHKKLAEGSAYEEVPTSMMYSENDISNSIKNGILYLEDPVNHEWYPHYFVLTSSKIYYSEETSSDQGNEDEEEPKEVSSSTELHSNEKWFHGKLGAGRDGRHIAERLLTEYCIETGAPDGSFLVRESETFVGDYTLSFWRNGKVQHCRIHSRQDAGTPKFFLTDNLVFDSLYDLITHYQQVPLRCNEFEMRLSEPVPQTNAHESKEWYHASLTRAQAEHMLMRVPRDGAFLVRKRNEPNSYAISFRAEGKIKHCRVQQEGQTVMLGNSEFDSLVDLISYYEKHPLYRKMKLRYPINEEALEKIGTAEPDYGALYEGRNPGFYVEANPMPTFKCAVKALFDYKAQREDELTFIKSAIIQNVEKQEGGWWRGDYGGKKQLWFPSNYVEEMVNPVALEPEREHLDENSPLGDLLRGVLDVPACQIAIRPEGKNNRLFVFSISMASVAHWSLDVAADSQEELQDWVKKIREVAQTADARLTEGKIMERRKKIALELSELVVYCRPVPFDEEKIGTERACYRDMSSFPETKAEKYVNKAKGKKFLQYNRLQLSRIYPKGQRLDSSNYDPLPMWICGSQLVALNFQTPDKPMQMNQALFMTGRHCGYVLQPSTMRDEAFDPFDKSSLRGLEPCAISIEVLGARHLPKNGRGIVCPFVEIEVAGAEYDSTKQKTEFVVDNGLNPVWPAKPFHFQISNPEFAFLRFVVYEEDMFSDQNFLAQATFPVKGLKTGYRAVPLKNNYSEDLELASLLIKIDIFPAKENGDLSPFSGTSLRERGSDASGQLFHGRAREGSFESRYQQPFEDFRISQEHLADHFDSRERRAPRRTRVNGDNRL

[4] = target: T3, Heat shock factor protein 1 (Mus musculus, UniProt P38532); assay: enhancement of HSF1-driven luciferase signal – cell-based, NIH3T3, luminescence, dose retest, confirmation (AID 435004); type: functional;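 further: stress induced by proteasome inhibitor MG132 added 30 min after compound; luciferase reporter driven by HSF1 response element in NIH3T3 cells; actives raise luminescence as potentiators of the MG132 stress response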
T3 sequence (P38532 whole entry): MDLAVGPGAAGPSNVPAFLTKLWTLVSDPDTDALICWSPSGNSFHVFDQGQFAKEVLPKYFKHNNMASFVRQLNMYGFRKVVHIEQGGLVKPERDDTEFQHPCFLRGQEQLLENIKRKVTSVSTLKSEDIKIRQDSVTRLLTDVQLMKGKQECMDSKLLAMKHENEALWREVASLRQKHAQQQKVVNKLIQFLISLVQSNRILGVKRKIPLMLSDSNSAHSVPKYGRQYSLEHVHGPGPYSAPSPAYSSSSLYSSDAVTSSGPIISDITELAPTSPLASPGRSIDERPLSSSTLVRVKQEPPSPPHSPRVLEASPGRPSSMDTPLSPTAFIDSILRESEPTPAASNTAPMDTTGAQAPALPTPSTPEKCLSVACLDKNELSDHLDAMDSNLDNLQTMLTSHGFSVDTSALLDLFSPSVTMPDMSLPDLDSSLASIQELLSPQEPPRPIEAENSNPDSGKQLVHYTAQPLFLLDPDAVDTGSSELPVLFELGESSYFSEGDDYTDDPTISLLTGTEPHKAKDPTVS

[5] = target: T4, 1-phosphatidylinositol 4,5-bisphosphate phosphodiesterase beta-3 (Homo sapiens, UniProt Q01970); assay: Fluorescence-based biochemical high throughput dose response assay to identify inhibitors of phospholipase C isozymes (PLC-B3).
T4 sequence (Q01970 whole entry): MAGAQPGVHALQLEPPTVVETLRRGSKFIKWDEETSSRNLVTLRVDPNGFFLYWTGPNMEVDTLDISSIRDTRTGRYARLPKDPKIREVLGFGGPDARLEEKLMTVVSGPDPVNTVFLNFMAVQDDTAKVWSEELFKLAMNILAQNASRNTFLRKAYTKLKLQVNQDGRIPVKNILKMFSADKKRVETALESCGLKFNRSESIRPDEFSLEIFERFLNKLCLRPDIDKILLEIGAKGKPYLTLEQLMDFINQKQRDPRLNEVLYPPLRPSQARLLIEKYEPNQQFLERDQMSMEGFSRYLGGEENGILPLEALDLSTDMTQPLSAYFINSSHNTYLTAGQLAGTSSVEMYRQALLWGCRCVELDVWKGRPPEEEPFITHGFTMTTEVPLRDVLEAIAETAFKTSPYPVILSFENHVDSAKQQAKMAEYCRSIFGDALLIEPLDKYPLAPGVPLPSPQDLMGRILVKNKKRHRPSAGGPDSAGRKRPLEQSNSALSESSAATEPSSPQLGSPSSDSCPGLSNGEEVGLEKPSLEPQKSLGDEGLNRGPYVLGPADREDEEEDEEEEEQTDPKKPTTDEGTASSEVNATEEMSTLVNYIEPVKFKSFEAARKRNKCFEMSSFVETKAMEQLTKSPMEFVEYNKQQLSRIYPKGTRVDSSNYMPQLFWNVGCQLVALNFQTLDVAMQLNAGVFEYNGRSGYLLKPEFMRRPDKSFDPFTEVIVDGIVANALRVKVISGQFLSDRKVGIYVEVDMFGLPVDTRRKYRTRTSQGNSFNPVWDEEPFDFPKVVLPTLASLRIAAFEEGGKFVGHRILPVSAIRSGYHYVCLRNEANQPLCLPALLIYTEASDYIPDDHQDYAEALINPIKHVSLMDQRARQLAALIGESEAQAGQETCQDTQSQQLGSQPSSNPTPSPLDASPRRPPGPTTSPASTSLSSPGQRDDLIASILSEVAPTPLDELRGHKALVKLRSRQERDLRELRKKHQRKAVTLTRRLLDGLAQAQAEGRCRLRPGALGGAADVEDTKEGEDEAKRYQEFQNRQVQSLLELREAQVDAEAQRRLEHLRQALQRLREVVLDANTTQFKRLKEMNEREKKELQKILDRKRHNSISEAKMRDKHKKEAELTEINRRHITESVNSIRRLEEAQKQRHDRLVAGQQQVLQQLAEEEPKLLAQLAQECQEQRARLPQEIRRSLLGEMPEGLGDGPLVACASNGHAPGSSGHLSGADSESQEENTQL

Kallikrein-7 = Kallikrein-7 (Homo sapiens, UniProt P49862); assay: Fluorescence Intensity-based biochemical primary high throughput dose response assay to identify activators of kallikrein-7 (K7) zymogen.
[6] = target: Mitogen-activated protein kinase 10 (Homo sapiens, UniProt P53779); assay: Dose response biochemical screening assay for inhibitors of c-Jun N-Terminal Kinase 3 (JNK3). [Related pubchem assays: 746 ]
[7] = target: T5, Rac GTPase-activating protein 1 (Homo sapiens, UniProt Q9H0H5); assay: blockers of MgcRacGAP-driven Rac1 GTP hydrolysis – biochemical, ADP Hunter fluorescence, primary and confirmatory, confirmation (AID 624330); type: functional
T5 sequence (Q9H0H5 whole entry): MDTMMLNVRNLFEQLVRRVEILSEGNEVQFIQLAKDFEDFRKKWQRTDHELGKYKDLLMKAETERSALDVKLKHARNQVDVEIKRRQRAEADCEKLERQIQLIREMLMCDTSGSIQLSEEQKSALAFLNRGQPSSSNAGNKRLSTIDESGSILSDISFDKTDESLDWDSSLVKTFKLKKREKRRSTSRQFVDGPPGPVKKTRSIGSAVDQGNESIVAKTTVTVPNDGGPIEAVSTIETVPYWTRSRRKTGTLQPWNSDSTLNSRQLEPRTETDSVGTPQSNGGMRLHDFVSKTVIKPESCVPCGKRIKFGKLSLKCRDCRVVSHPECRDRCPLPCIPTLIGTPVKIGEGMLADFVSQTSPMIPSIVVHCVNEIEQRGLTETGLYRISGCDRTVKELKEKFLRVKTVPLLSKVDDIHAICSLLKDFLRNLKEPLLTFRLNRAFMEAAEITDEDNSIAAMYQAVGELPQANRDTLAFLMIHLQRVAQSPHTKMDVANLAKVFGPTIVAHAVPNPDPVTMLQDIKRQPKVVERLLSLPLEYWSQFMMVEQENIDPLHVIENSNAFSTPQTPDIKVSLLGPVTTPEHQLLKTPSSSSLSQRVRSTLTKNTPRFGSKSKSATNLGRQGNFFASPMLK

[8] = target: Luciferin 4-monooxygenase (Photinus pyralis, UniProt P08659); assay: inhibition of purified Photinus pyralis luciferase – biochemical, luminescence, dose response (AID 1891)
[9] = Luminescence Cell-Based Dose Confirmation HTS to Identify Inhibitors of Platelet Dense Granule Release. [Related pubchem assays: 1663 (Primary HTS), 1678 (Summary of Project)]; type: functional
[10] = viability loss in THP-1 monocytes – THP-1 cells, cytotoxicity control for Vif-APOBEC3G degradation inhibitor project, dose response (AID 1117359); type: functional; conditions: THP-1
[11] = target: Induced myeloid leukemia cell differentiation protein Mcl-1 (Homo sapiens, UniProt Q07820); type: functional
Large T antigen = Large T antigen (Simian virus 40, UniProt P03070); type: functional, Betapolyomavirus macacae;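 further: Confirmatory-stage PubChem screen for compounds that inhibit SV40 T antigen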
Vero = assay: viability of Vero cells under compound – cytotoxicity control for flavivirus capping enzyme inhibitors (AID 588742); type: functional; conditions: Chlorocebus sabaeus
[12] = target: T6, Calpain-2 catalytic subunit (Sus scrofa, UniProt P43367); assay: m-calpain protease blockers, concentration series – biochemical, fluorogenic peptide substrate, dose response (AID 1420); type: functional
T6 sequence (P43367 whole entry): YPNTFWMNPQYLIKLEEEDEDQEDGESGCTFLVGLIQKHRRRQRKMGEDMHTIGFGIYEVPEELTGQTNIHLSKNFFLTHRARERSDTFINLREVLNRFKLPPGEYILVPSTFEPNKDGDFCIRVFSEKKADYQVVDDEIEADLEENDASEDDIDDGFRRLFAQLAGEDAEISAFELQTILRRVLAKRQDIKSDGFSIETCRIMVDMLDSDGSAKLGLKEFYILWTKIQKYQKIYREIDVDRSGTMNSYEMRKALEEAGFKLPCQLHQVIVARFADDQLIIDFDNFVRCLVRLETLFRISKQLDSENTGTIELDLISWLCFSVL

Chain of Kallikrein-7 (P49862 whole entry): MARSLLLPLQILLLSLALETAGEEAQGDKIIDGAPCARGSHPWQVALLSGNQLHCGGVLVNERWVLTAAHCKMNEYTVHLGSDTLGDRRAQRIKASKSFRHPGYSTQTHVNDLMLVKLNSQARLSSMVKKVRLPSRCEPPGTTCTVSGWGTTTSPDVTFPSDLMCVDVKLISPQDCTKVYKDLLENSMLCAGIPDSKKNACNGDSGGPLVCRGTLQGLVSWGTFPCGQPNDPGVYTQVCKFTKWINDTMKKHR
Chain of Mitogen-activated protein kinase 10 (P53779 whole entry): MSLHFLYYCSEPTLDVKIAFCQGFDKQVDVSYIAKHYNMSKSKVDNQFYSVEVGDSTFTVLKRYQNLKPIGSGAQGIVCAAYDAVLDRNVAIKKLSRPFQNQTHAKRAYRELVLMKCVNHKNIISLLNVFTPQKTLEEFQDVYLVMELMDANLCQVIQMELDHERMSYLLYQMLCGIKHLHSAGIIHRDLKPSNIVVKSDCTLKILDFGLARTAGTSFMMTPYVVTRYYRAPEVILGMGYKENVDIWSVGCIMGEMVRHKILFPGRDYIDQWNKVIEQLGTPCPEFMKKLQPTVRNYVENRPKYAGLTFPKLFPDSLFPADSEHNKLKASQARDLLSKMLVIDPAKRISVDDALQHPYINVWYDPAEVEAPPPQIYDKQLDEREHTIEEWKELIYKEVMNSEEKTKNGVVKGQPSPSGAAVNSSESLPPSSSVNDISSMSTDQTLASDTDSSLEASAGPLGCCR
Chain of Large T antigen (P03070 whole entry): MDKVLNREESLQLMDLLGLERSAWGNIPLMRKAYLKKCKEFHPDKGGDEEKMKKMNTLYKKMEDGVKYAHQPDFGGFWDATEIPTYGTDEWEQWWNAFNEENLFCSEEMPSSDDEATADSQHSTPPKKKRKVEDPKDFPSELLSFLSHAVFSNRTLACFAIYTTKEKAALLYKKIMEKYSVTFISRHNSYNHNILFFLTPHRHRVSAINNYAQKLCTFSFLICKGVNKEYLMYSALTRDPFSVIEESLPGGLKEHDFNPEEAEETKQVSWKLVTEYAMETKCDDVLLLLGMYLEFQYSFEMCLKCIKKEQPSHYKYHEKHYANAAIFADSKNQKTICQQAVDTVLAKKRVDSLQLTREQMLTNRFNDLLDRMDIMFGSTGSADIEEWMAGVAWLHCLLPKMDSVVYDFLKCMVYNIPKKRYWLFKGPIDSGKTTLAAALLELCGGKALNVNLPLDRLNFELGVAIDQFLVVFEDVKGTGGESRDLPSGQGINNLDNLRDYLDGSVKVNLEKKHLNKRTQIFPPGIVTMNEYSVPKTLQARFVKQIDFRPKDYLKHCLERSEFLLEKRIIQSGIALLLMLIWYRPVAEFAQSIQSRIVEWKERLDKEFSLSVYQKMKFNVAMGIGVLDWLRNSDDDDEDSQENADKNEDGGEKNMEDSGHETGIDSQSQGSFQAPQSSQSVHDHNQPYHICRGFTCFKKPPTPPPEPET
Chain of Luciferin 4-monooxygenase (P08659 whole entry): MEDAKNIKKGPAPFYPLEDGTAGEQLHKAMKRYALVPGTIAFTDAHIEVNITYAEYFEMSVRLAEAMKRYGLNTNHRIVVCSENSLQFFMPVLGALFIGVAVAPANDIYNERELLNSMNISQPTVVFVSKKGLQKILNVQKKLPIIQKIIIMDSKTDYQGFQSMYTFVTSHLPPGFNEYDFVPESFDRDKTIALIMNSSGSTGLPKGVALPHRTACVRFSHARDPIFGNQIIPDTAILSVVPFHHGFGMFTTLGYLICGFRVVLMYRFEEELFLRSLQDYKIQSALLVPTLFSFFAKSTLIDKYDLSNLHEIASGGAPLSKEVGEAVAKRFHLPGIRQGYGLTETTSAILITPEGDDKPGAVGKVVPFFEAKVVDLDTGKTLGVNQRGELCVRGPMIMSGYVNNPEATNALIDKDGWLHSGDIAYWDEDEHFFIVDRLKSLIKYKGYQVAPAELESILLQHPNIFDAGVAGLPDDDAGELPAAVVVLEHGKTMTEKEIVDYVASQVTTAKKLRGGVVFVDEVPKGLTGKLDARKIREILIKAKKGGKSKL
Chain of Induced myeloid leukemia cell differentiation protein Mcl-1 (Q07820 whole entry): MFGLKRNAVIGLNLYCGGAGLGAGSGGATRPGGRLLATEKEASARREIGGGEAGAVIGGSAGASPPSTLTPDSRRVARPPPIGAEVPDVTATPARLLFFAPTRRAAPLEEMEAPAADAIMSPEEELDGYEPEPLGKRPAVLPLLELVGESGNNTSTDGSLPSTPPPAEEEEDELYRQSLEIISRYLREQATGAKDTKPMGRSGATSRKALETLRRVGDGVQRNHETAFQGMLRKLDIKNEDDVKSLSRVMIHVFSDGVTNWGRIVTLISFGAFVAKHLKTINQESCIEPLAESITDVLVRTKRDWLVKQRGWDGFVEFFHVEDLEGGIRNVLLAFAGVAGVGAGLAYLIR

- IC50 [3]: > 123 µM (inactive)
- EC50 [4]: 6.83 µM (active)
- IC50 [5]: > 123 µM (inactive)
SMILES: O=[N+]([O-])c1ccc(Sc2ncccn2)c([N+](=O)[O-])c1

- EC50 (Kallikrein-7): > 69.6 µM (inactive)
SMILES: Cc1cc(=O)oc2cc(OCC(=O)N3CCOCC3)c(Cl)cc12

- IC50 [3]: > 122 µM (inactive)
- IC50 [5]: > 122 µM (inactive)
SMILES: O=C(Cc1cccs1)N1CCC(c2nc(O)c3nnn(Cc4ccccc4)c3n2)CC1

- IC50 [6]: > 93.1 µM (not active)
SMILES: Nc1ccc(-n2c(N)c(C(=O)NCc3ccc4c(c3)OCO4)c3nc4ccccc4nc32)cc1

- EC50 (Kallikrein-7): 10.5 µM (inactive)
SMILES: COc1ccc(OC)c(/C=N/NC(=O)CN2CCSCC2)c1

- IC50 [12]: 13 µM (not active)
SMILES: COc1cc(CNc2ccc(O)cc2)cc(Br)c1OCc1ccccc1
- CC50 (Vero): > 40 µM (active)
- CC50 [10]: > 40 µM (active)

Further lines, the compound ahead of its results:

SMILES: O=C(/C=C/c1ccccc1)c1c[nH]c2ccccc12
- EC50 [1]: > 67.4 µM (inactive)
- IC50 [2]: > 67.4 µM (inactive)

SMILES: COc1ccc(/C=N/Nc2nc3ccccc3s2)cc1O
- IC50 [7]: 102 µM (active)
- EC50 [1]: > 67.5 µM (inactive)
- IC50 [2]: > 67.5 µM (inactive)
- EC50 [8]: 0.947 µM (active)
- EC50 [9]: 5.38 µM (active)

SMILES: O=C(OCC1O[C@@H](OC(=O)c2cc(O)c(O)c(O)c2)[C@@H](OC(=O)c2cc(O)c(O)c(O)c2)[C@@H](OC(=O)c2cc(O)c(O)c(O)c2)[C@@H]1OC(=O)c1cc(O)c(O)c(O)c1)c1cc(O)c(O)c(O)c1 (some centres undefined)
- CC50 [10]: 20.6 µM (active)
- IC50 [11]: 4.54 µM (active)
- IC50 (Large T antigen): 4.51 µM (active)

SMILES: CC(C)NC(=O)c1nc2ccccc2s1
- EC50 [1]: > 67.5 µM (inactive)
- IC50 [2]: > 67.5 µM (inactive)

SMILES: O=C(CN1C(=O)/C(=C\c2cccs2)SC1=S)Nc1cccc(C(=O)O)c1
- CC50 [10]: > 40 µM (active)
